Here are results for six compounds from patent US10392368B2, “Pyrazolo and triazolo bicyclic compounds as JAK kinase inhibitors” (THERAVANCE BIOPHARMA R&D IP, LLC, priority 2017, dated 2019).

Each structure is given as a SMILES string.

The target in test [1] is T1, JAK1 (Homo sapiens, UniProt P23458).
T1 construct: GST; purchased Life Technologies
The test can be described thus: Biochemical JAK1 kinase assay (LanthaScreen). A digest of the protocol:
(§1)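 Values are pKi, calculated by Cheng-Prusoff from IC50 obtained by robust 4-parameter fitting of percent inhibition. The kinase reaction used GFP-STAT1 peptide in HEPES pH 7.5 buffer with MgCl2, EGTA and Brij-35, ATP-initiated after compound pre-incubation, 1 h at ambient temperature.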

Test [2] addresses T2, JAK3 (Homo sapiens, UniProt P52333).
T2 sequence (P52333 1-1124): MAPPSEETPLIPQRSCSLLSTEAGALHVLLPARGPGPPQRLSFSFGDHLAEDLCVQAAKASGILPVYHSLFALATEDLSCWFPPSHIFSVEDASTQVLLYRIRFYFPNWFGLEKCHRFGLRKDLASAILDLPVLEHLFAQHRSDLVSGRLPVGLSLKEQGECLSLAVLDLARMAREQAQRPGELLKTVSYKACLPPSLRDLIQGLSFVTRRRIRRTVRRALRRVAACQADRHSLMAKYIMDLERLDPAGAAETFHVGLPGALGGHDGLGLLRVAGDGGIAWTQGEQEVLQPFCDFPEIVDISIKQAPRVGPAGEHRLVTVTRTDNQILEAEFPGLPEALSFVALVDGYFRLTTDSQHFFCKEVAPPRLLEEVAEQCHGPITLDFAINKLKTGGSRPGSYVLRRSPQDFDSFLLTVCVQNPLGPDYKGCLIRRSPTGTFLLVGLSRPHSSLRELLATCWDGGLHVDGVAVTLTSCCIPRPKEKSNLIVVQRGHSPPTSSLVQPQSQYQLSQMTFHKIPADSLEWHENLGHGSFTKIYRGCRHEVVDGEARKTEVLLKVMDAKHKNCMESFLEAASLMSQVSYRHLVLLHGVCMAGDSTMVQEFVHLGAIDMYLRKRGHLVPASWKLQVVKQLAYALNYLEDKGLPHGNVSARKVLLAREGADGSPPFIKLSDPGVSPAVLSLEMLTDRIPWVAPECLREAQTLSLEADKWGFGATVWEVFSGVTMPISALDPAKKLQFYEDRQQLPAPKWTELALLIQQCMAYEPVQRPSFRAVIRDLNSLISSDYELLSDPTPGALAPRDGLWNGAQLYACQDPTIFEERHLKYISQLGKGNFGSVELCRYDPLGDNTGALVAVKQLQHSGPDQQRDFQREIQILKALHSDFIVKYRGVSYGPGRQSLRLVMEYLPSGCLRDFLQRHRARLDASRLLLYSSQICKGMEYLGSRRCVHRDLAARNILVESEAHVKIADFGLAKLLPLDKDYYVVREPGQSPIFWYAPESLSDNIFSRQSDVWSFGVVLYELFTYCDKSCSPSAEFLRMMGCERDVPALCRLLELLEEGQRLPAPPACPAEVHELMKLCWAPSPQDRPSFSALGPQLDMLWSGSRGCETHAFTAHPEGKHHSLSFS
The test can be described thus: Biochemical JAK3 kinase assay (LanthaScreen). Also noted: GST; purchased Life Technologies. The essentials: as §1
Background: In TR-FRET formats the signal depends on donor and acceptor labels being close together.

The subject of test [3] is IL-2 stimulated pSTAT5 in Tall-1 T cells. The test can be described thus: Cellular JAK3 potency assay: inhibition of IL-2 stimulated pSTAT5 in Tall-1 T cells. It counts as cell-based, human. A digest of the protocol:
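Tall-1 human T cells (45,000/well) in phenol red-free DMEM with 10% FBS were preincubated with compound 1 h at 37 °C, then stimulated with IL-2 (final 300 ng/ml) for 30 min. Lysate pSTAT5 read by AlphaLisa; IC50 from inhibition curves, reported as pIC50 (mean±SD).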

For test [4], the target named is T3, Tyk2 (Homo sapiens, UniProt P29597).
T3 construct: GST; purchased Life Technologies
Kind of test: Biochemical Tyk2 kinase assay (LanthaScreen). A digest of the protocol:
as §1

For test [5], the system named is oxazolone-induced colitis. Kind of test: Mouse model of oxazolone-induced colitis. In kind it is in vivo. The procedure: Oxazolone-induced colitis is an experimental model that has a histological resemblance to human ulcerative colitis (Heller et al. Immunology, 2002, 17, 629-638). Adult BALB/C mice from Harlan were used in the assay. On day 1, animals were lightly anesthetized with isoflurane and the hairs between the shoulder were carefully removed before oxazolone (4%, 150 μL, 4:1 acetone:olive oil formulation) or vehicle solution was slowly applied for skin sensitization. Seven days after skin sensitization, the mice were fasted around 6 hours prior, anesthetized with ketamine/xylazine injection, and a 1 mL syringe equipped with a 3.5-F catheter, filled with oxazolone solution, was inserted carefully about 4 cm into the colon of the mouse. Following insertion, 50 μL of the oxazolone solution (0.8% in 1:1 ethanol:water formulation) was injected very slowly (over 30 sec using an injection pump) into the colon. Drug treatment (PO, QD or BID or TID) or vehicle was initiated a day prior to the oxazolone intrarectal (IR) challenge. Two-day post oxazolone intrarectal challenge, the disease was assessed by treatment-blinded experimenters for each mouse according to the criteria score: stool consistency score (0, normal; 2, loose; 4, diarrhea), gross bleeding score (0, absence; 2, blood tinged; 4, presence); Combined stool score endpoint=stool consistency score+stool blood score.
Select compounds were tested in the assay.

Test [6] concerns the target T4, JAK2 (Homo sapiens, UniProt O60674).
T4 construct: GST; purchased Life Technologies
The test can be described thus: Biochemical JAK2 kinase assay (LanthaScreen). The essentials:
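GST-tagged recombinant JAK2 pre-incubated 1 h at ambient temperature with compound and GFP-STAT1 peptide in HEPES pH 7.5/MgCl2 buffer, then ATP added for a 1 h reaction with 1% DMSO. TR-FRET read after EDTA and Tb-anti-pSTAT1 (pTyr701) addition; IC50 from 4-parameter fit, converted to pKi by Cheng-Prusoff.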

The mark [7] stands for this setting: selectivity: difference of pKi JAK3 and pKi JAK1.
Where [8] appears, read: IL-2 stimulated pSTAT5 in Tall-1 T cells.

T4 sequence (O60674 whole entry): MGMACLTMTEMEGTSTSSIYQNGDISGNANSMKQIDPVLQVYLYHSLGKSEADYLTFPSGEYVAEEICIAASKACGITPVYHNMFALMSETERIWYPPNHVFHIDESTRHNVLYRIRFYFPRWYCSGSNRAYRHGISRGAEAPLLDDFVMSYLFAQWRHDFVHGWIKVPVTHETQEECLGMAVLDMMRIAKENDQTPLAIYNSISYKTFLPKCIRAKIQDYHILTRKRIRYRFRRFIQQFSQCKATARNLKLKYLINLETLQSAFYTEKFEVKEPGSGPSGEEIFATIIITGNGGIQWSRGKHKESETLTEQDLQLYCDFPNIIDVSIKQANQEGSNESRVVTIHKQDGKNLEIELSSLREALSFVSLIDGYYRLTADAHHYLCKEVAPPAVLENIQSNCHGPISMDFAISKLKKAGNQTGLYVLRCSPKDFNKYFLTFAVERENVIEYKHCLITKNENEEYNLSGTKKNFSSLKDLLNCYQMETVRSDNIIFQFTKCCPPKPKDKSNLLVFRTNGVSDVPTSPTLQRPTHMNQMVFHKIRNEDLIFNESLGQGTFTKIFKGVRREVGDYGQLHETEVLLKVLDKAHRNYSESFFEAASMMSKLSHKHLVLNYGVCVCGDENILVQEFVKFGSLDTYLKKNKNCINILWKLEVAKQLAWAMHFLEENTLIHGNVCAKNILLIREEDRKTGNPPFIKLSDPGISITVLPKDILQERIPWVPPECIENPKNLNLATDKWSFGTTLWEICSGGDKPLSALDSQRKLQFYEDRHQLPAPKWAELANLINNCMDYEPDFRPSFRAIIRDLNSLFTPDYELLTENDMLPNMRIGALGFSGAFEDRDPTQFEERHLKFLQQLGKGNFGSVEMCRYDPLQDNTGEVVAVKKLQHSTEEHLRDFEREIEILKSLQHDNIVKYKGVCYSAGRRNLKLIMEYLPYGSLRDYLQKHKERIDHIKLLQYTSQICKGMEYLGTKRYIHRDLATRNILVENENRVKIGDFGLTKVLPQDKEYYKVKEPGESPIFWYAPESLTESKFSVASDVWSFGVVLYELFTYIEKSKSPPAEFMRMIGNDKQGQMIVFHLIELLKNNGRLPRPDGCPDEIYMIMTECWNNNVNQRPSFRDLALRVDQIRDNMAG
T3 sequence (P29597 whole entry): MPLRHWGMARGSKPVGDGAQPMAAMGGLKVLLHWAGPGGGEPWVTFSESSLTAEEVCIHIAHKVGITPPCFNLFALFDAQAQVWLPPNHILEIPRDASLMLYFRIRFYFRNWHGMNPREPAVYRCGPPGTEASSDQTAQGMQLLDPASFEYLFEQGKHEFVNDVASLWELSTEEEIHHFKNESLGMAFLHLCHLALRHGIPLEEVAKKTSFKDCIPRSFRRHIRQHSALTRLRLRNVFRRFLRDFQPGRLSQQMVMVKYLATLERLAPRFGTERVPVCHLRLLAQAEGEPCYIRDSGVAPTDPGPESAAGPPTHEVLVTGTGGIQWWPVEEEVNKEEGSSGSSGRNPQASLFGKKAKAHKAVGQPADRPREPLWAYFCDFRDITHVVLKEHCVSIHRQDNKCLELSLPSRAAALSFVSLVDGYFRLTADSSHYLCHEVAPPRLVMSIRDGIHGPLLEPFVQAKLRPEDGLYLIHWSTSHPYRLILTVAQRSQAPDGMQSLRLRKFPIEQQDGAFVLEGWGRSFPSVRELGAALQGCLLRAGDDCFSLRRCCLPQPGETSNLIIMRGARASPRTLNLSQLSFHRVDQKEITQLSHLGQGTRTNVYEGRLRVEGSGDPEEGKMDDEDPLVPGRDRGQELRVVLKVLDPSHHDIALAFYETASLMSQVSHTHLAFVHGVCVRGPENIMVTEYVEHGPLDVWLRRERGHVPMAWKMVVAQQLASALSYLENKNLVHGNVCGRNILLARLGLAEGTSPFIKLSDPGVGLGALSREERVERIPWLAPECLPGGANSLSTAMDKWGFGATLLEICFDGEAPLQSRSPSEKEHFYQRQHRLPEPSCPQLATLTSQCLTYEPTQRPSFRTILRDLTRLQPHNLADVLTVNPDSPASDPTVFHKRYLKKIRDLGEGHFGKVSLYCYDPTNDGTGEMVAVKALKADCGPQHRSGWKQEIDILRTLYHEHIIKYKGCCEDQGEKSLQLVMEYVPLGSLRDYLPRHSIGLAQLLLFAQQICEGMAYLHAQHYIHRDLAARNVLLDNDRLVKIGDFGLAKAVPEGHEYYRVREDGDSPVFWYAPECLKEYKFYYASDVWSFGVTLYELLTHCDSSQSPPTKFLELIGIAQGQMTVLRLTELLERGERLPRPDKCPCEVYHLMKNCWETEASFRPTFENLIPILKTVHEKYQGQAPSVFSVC
T1 sequence (P23458 whole entry): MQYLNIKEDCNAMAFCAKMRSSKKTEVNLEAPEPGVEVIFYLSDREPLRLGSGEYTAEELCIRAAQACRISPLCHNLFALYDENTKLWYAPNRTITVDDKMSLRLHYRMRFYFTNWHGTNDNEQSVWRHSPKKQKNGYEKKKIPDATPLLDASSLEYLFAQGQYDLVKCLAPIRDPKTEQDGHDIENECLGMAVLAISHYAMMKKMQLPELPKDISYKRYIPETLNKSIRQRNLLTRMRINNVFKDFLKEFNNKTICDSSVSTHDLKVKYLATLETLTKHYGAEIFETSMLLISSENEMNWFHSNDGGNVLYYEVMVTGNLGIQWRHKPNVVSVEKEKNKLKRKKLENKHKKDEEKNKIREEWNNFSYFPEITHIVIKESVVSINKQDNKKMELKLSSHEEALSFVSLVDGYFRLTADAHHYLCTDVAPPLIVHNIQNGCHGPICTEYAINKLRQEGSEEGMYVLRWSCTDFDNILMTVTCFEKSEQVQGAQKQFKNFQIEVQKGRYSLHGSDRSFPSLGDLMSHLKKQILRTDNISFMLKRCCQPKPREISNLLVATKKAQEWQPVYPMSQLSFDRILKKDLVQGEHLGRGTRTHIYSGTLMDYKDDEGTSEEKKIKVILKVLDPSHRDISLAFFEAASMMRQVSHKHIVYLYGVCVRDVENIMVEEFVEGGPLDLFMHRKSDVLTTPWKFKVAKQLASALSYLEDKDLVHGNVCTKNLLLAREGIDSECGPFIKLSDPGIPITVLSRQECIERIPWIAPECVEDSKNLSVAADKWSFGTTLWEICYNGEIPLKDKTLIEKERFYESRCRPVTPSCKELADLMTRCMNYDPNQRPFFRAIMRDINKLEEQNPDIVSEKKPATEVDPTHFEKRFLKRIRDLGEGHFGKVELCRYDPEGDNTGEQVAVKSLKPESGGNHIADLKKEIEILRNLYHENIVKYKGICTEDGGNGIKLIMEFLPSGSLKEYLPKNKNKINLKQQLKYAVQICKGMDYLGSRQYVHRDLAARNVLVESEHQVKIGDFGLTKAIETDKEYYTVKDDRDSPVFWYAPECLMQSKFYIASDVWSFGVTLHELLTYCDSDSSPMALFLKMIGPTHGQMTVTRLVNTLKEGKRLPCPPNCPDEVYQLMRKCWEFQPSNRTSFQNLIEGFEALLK

Consider `C=CC(=O)N1CC2(CC(Oc3cc(-c4ccc(O)c(Cl)c4)cc4[nH]ncc34)C2)C1` [Compound 15-1], for which, in test [1], the “JAK 1 (pKi)” value is given as “E (a pKi value of 7 or below (Ki of 100 nM or above))”. The “JAK 3 (pKi)” value in test [2] was “B (a pKi value between 9 and 10 (Ki between 1 nM and 0.1 nM))”. Moreover, the “JAK3 (pKi)-JAK1 (pKi)” value in test [2] (selectivity JAK3 over JAK1, difference of pKi) was “A (a value of 3 or above)”. In test [3] (IL-2 stimulated pSTAT5, Tall-1 T cells), the “Tall-1 (pIC50)” value is on record as “A (a pIC50 value≥7.5 (IC50≤32 nM))”. For the same compound, the “Tyk 2 (pKi)” value in test [4] is “E (a pKi value of 7 or below (Ki of 100 nM or above))”. The “combined stool score endpoint as compared with vehicle treated animals” value in test [5] (3 mg/kg (PO, BID)) is “statistically significant decrease”. Also, in test [6], the “JAK 2 (pKi)” value was “E (a pKi value of 7 or below (Ki of 100 nM or above))”.

As for `CN(C)C/C=C/C(=O)N1CC(C)(COc2nc(-c3ccc(O)cc3)cc3[nH]ncc23)C1` [Compound 3-55], the “JAK 1 (pKi)” value in test [1] is “E (a pKi value of 7 or below (Ki of 100 nM or above))”. Moreover, the “JAK 3 (pKi)” value in test [2] is “A (a pKi value≥10 (Ki≤0.1 nM))”. Besides, in test [2] (setting [7]), the “JAK3 (pKi)-JAK1 (pKi)” value is “A (a value of 3 or above)”. The “Tall-1 (pIC50)” value in test [3] (setting [8]) is “B (a pIC50 value between 6.7 (included) and 7.5 (IC50 between 200 nM and 32 nM))”. Besides, in test [4], the “Tyk 2 (pKi)” value was “E (a pKi value of 7 or below (Ki of 100 nM or above))”. Further, the “combined stool score endpoint as compared with vehicle treated animals” value in test [5] (3 mg/kg (PO, BID)) is “statistically significant decrease”. Further, the “JAK 2 (pKi)” value in test [6] was “E (a pKi value of 7 or below (Ki of 100 nM or above))”.

`C=CC(=O)N1CC(C)(COc2nc(-c3ccc(O)cc3)nc3[nH]ncc23)C1` [Compound 3-57]: the “JAK 1 (pKi)” value in test [1] was “E (a pKi value of 7 or below (Ki of 100 nM or above))”. Moreover, the “JAK 3 (pKi)” value in test [2] is reported as “A (a pKi value≥10 (Ki≤0.1 nM))”. The “JAK3 (pKi)-JAK1 (pKi)” value in test [2] (setting [7]) is recorded as “A (a value of 3 or above)”. For the same compound, the “Tall-1 (pIC50)” value in test [3] (setting [8]) was “B (a pIC50 value between 6.7 (included) and 7.5 (IC50 between 200 nM and 32 nM))”. The “Tyk 2 (pKi)” value in test [4] is on record as “E (a pKi value of 7 or below (Ki of 100 nM or above))”. In addition, the “combined stool score endpoint as compared with vehicle treated animals” value in test [5] (3 mg/kg (PO, BID)) is recorded as “statistically significant decrease”. Besides, in test [6], the “JAK 2 (pKi)” value is “E (a pKi value of 7 or below (Ki of 100 nM or above))”.

Regarding `COC1(COc2cc(-c3ccc(O)c(F)c3)cc3[nH]ncc23)CN(C(=O)/C=C/CN(C)C)C1` [Compound 3-74], the Ki in test [1] (read-out: JAK 1 (pKi) (converted)) was > 100 nM; in test [2] (read-out: JAK 3 (pKi) (converted)), < 0.1 nM; in test [4] (read-out: Tyk 2 (pKi) (converted)), > 100 nM; in test [6] (read-out: JAK 2 (pKi) (converted)), > 100 nM. For the same compound, the “JAK3 (pKi)-JAK1 (pKi)” value in test [2] (setting [7]) is “A (a value of 3 or above)”. Also, in test [3] (Homo sapiens, TALL-1, IL-2 stimulated pSTAT5 in Tall-1 T cells, read-out: Tall-1 (pIC50) (converted)), the IC50 is < 31.6 nM. Besides, in test [5] (1 and 10 mg/kg only (PO, BID)), the “combined stool score endpoint as compared with vehicle treated animals” value is listed as “statistically significant decrease”.

With `C=CC(=O)N1CC(C(C)(C)Oc2cc(-c3ccc(O)c(Cl)c3)nc3[nH]ncc23)C1` [Compound 3-80], the “JAK 1 (pKi)” value in test [1] is “E (a pKi value of 7 or below (Ki of 100 nM or above))”. Besides, the “JAK 3 (pKi)” value in test [2] is on record as “A (a pKi value≥10 (Ki≤0.1 nM))”. In addition, in test [2] (setting [7]), the “JAK3 (pKi)-JAK1 (pKi)” value was “A (a value of 3 or above)”. Also, the “Tall-1 (pIC50)” value in test [3] (setting [8]) was “B (a pIC50 value between 6.7 (included) and 7.5 (IC50 between 200 nM and 32 nM))”. Moreover, in test [4], the “Tyk 2 (pKi)” value is reported as “E (a pKi value of 7 or below (Ki of 100 nM or above))”. In addition, the “combined stool score endpoint as compared with vehicle treated animals” value in test [5] (3 mg/kg (PO, BID)) is on record as “statistically significant decrease”. In test [6], the “JAK 2 (pKi)” value is given as “E (a pKi value of 7 or below (Ki of 100 nM or above))”.

On to `CN(C)C/C=C/C(=O)N1CC(C)(COc2cc(-c3ccc(O)c(F)c3)cc3[nH]ncc23)C1` [Compound 3-11], for which the “JAK 1 (pKi)” value in test [1] is listed as “E (a pKi value of 7 or below (Ki of 100 nM or above))”. Moreover, in test [2], the “JAK 3 (pKi)” value is reported as “A (a pKi value≥10 (Ki≤0.1 nM))”. The “JAK3 (pKi)-JAK1 (pKi)” value in test [2] (setting [7]) is on record as “A (a value of 3 or above)”. For the same compound, in test [3] (setting [8]), the “Tall-1 (pIC50)” value is “B (a pIC50 value between 6.7 (included) and 7.5 (IC50 between 200 nM and 32 nM))”. In addition, the “Tyk 2 (pKi)” value in test [4] was “E (a pKi value of 7 or below (Ki of 100 nM or above))”. The “combined stool score endpoint as compared with vehicle treated animals” value in test [5] (3 mg/kg (PO, BID)) was “statistically significant decrease”. Also, in test [6], the “JAK 2 (pKi)” value is “D (a pKi value between 7 and 8 (Ki between 100 nM and 10 nM))”.
